Values joined by “and” are separate entries in the source; they are usually repeats but may differ in a detail not shown here. Identical values can stand only once.

This test has as its system BDF1 mice, Adenocarcinoma 755 s.c., tumor weight T/C. Kind of test: NCI In Vivo Anticancer Drug Screen. Data for tumor model Adenocarcinoma 755 (subcutaneous) in B6D2F1 (BDF1) mice. The settings on record: endpoint: mean tumor weight, higher = larger tumour. An outline of the steps: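 Values express treated (T) relative to vehicle-dosed control (C) animals, based on survival or tumour size measured after compound treatment of mice bearing a transplanted tumour.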

The mark [1] stands for this setting: dose: 25.0 mg/kg/injection, schedule: Q01DX011 (sc), vehicle: steriod suspending solution.
The mark [2] stands for this setting: dose: 50.0 mg/kg/injection, schedule: Q01DX011 (sc), vehicle: steriod suspending solution.
[3] abbreviates: dose: 12.5 mg/kg/injection, schedule: Q01DX011 (ip), vehicle: methylcellulose (MC).
Setting [4] is: dose: 25.0 mg/kg/injection, schedule: Q01DX011 (ip), vehicle: methylcellulose (MC).
Where [5] appears, read: dose: 50.0 mg/kg/injection, schedule: Q01DX011 (ip), vehicle: methylcellulose (MC).
Setting [6] is: dose: 100.0 mg/kg/injection, schedule: Q01DX011 (ip), vehicle: methylcellulose (MC).

`Brc1ncnc2nc[nH]c12`: the T/C was 99 % of control (dose: 1.12 mg/kg/injection, schedule: Q01DX011 (ip), vehicle: carboxymethylcellulose (CMC)); 100 % of control (dose: 2.25 mg/kg/injection, schedule: Q01DX011 (ip), vehicle: carboxymethylcellulose (CMC)); 43 % of control (dose: 4.5 mg/kg/injection, schedule: Q01DX011 (ip), vehicle: carboxymethylcellulose (CMC)); 50 % of control (dose: 9.0 mg/kg/injection, schedule: Q01DX011 (ip), vehicle: carboxymethylcellulose (CMC)); 10 % of control (dose: 9.37 mg/kg/injection, schedule: Q01DX011 (ip), vehicle: carboxymethylcellulose (CMC)); 10 % of control (dose: 18.75 mg/kg/injection, schedule: Q01DX011 (ip), vehicle: carboxymethylcellulose (CMC)). Moreover, the T/C runs as follows: (dose: 37.5 mg/kg/injection, schedule: Q01DX011 (ip), vehicle: carboxymethylcellulose (CMC)) 2 % of control; (dose: 75.0 mg/kg/injection, schedule: Q01DX011 (ip), vehicle: carboxymethylcellulose (CMC)) 1 % of control and 6 % of control; (dose: 150.0 mg/kg/injection, schedule: Q01DX011 (ip), vehicle: carboxymethylcellulose (CMC)) 6 % of control.

In the case of `O=C1NC(=O)C(c2ccc(Cl)cc2)(c2ccccc2Cl)N1` (stereo unspecified), the T/C runs as follows: (dose: 50.0 mg/kg/injection, schedule: Q01DX011 (ip), vehicle: saline) 91 % of control; (dose: 100.0 mg/kg/injection, schedule: Q01DX011 (ip), vehicle: saline) 82 % of control; (dose: 125.0 mg/kg/injection, schedule: Q01DX011 (ip), vehicle: carboxymethylcellulose (CMC)) 81 % of control; (dose: 200.0 mg/kg/injection, schedule: Q01DX011 (ip), vehicle: saline) 58 % of control and 77 % of control; (dose: 250.0 mg/kg/injection, schedule: Q01DX011 (ip), vehicle: carboxymethylcellulose (CMC)) 28 % of control; (dose: 400.0 mg/kg/injection, schedule: Q01DX011 (ip), vehicle: other) 71 % of control. Also, the T/C reads like this: (dose: 500.0 mg/kg/injection, schedule: Q01DX011 (ip), vehicle: carboxymethylcellulose (CMC)) 81 % of control; (dose: 800.0 mg/kg/injection, schedule: Q01DX011 (ip), vehicle: other) 30 % of control; (dose: 800.0 mg/kg/injection, schedule: Q01DX011 (ip), vehicle: saline) 76 % of control; (dose: 1600.0 mg/kg/injection, schedule: Q01DX011 (ip), vehicle: saline) 107 % of control.

As to `O=C1[O][Sb]23[O]C(=O)C([O]2)C(O)C(O)C2[O][Sb]4([O]C(=O)C([O]4)C(O)C(O)C1[O]3)[O]C2=O` (stereo unspecified), the T/C (dose: 80.0 mg/kg/injection, schedule: Q01DX011 (ip), vehicle: methylcellulose (MC)) is 50 % of control and 55 % of control.

In the case of `Cn1c(Cl)nc2nc(Cl)nc(Cl)c21`, for the setting “dose: 7.5 mg/kg/injection, schedule: Q01DX011 (ip), vehicle: carboxymethylcellulose (CMC)”, the T/C was 110 % of control.

On to `CCOC(=O)NP(=O)(N1CC1)N1CC1`, for which the T/C is 118 % of control (dose: 2.37 mg/kg/injection, schedule: Q01DX011 (ip), vehicle: carboxymethylcellulose (CMC)); 67 % of control (dose: 2.5 mg/kg/injection, schedule: Q01DX011 (ip), vehicle: carboxymethylcellulose (CMC)); 104 % of control (dose: 4.75 mg/kg/injection, schedule: Q01DX011 (ip), vehicle: carboxymethylcellulose (CMC)); 73 % of control (dose: 5.0 mg/kg/injection, schedule: Q01DX011 (ip), vehicle: carboxymethylcellulose (CMC)); 101 % of control (dose: 7.6 mg/kg/injection, schedule: Q01DX011 (ip), vehicle: carboxymethylcellulose (CMC)); 52 % of control (dose: 8.0 mg/kg/injection, schedule: Q01DX011 (ip), vehicle: carboxymethylcellulose (CMC)). In addition, the T/C (dose: 9.5 mg/kg/injection, schedule: Q01DX011 (ip), vehicle: carboxymethylcellulose (CMC)) is 61 % of control and 75 % of control; the T/C (dose: 10.0 mg/kg/injection, schedule: Q01DX011 (ip), vehicle: carboxymethylcellulose (CMC)) was 58 % of control and 77 % of control; the T/C (dose: 12.66 mg/kg/injection, schedule: Q01DX011 (ip), vehicle: carboxymethylcellulose (CMC)) was 54 % of control; the T/C (dose: 13.3 mg/kg/injection, schedule: Q01DX011 (ip), vehicle: carboxymethylcellulose (CMC)) is 18 % of control; the T/C (dose: 19.0 mg/kg/injection, schedule: Q01DX011 (ip), vehicle: carboxymethylcellulose (CMC)) was 17 % of control and 20 % of control; the T/C (dose: 20.0 mg/kg/injection, schedule: Q01DX011 (ip), vehicle: carboxymethylcellulose (CMC)) is 14 % of control.

For `Cn1c(N)nc2c(ncn2C2OC(CO)C(O)C2O)c1=O` (stereo unspecified), the T/C is 101 % of control (dose: 30.0 mg/kg/injection, schedule: Q01DX011 (ip), vehicle: saline); 94 % of control (dose: 60.0 mg/kg/injection, schedule: Q01DX011 (ip), vehicle: saline); 116 % of control (dose: 120.0 mg/kg/injection, schedule: Q01DX011 (ip), vehicle: saline).

With `CSc1ncc(Br)c(Nc2ccc(Cl)c(Cl)c2)n1`, the T/C is 57 % of control (dose: 15.0 mg/kg/injection, schedule: Q01DX011 (ip), vehicle: methylcellulose (MC)); 66 % of control (dose: 31.0 mg/kg/injection, schedule: Q01DX011 (ip), vehicle: methylcellulose (MC)); 78 % of control (dose: 62.0 mg/kg/injection, schedule: Q01DX011 (ip), vehicle: methylcellulose (MC)); 67 % of control (dose: 125.0 mg/kg/injection, schedule: Q01DX011 (ip), vehicle: methylcellulose (MC)); 62 % of control (dose: 250.0 mg/kg/injection, schedule: Q01DX011 (ip), vehicle: methylcellulose (MC)).

`CC(=O)OCC(=O)[C@@]1(O)CC[C@H]2[C@@H]3CCC4=CC(=O)C=C[C@]4(C)[C@@]3(F)[C@@H](O)C[C@@]21C`: the T/C reads like this: (dose: 0.07 mg/kg/injection, schedule: Q01DX011 (sc), vehicle: steriod suspending solution) 90 % of control; (dose: 0.14 mg/kg/injection, schedule: Q01DX011 (sc), vehicle: steriod suspending solution) 77 % of control; (dose: 0.28 mg/kg/injection, schedule: Q01DX011 (sc), vehicle: steriod suspending solution) 41 % of control; (dose: 1.12 mg/kg/injection, schedule: Q01DX011 (sc), vehicle: steriod suspending solution) 54 % of control; (dose: 2.25 mg/kg/injection, schedule: Q01DX011 (sc), vehicle: steriod suspending solution) 38 % of control; (dose: 4.5 mg/kg/injection, schedule: Q01DX011 (sc), vehicle: steriod suspending solution) 26 % of control and 38 % of control. The T/C runs as follows: (dose: 9.0 mg/kg/injection, schedule: Q01DX011 (sc), vehicle: steriod suspending solution) 21 % of control; (dose: 18.0 mg/kg/injection, schedule: Q01DX011 (sc), vehicle: steriod suspending solution) 17 % of control; (dose: 24.0 mg/kg/injection, schedule: Q01DX011 (sc), vehicle: steriod suspending solution) 9 % of control and 23 % of control; under setting [1], 23 % of control and 28 % of control; (dose: 36.0 mg/kg/injection, schedule: Q01DX011 (sc), vehicle: steriod suspending solution) 11 % of control; under setting [2], 13 % of control and 24 % of control. Also, the T/C (dose: 100.0 mg/kg/injection, schedule: Q01DX011 (sc), vehicle: steriod suspending solution) is 9 % of control and 11 % of control.

Regarding `Nc1nc(=S)c2ncn(C3OC(COC(=O)c4ccccc4)C(OC(=O)c4ccccc4)C3OC(=O)c3ccccc3)c2[nH]1` (stereo unspecified), the T/C by setting is: under setting [3], 52 % of control; under setting [4], 49 % of control; under setting [5], 7 % of control; under setting [6], 3 % of control.

On to `Cc1ccc(N(O)C(=O)Nc2ccccc2)cc1`, for which the T/C by setting is: under setting [6], 95 % of control; (dose: 200.0 mg/kg/injection, schedule: Q01DX011 (ip), vehicle: methylcellulose (MC)) 80 % of control.

For `O=C(NCCCCCCCCCCNC(=O)N1CC1)N1CC1`, the T/C is, setting by setting: (dose: 0.5 mg/kg/injection, schedule: Q01DX011 (ip), vehicle: carboxymethylcellulose (CMC)) 57 % of control and 66 % of control; (dose: 1.0 mg/kg/injection, schedule: Q01DX011 (ip), vehicle: carboxymethylcellulose (CMC)) 2 % of control and 20 % of control.

Take `O=C(O)CNc1ncnc2[nH]ncc12`: the T/C is 65 % of control under setting [3]; 82 % of control under setting [4]; 36 % of control under setting [5]; 2 % of control and 7 % of control under setting [6].

Regarding `CC(=O)[C@H]1CC[C@H]2[C@@H]3C[C@H](C)C4=CC(=O)CC[C@]4(C)[C@H]3C(=O)C[C@]12C`, the T/C is, setting by setting: under setting [1], 65 % of control; under setting [2], 78 % of control; (dose: 200.0 mg/kg/injection, schedule: Q01DX011 (sc), vehicle: steriod suspending solution) 35 % of control and 43 % of control; (dose: 400.0 mg/kg/injection, schedule: Q01DX011 (sc), vehicle: steriod suspending solution) 21 % of control; (dose: 800.0 mg/kg/injection, schedule: Q01DX011 (sc), vehicle: steriod suspending solution) 30 % of control.
